Source: PMC6034706 (ChemMedChem, 2017)
Where two headings read alike, the source gives them in different places.

Key:
VIM2 [1] = molecular target: T1, VIM2 (Escherichia coli, UniProt Q5U7L7); assay: biochemical; format: biochemical, P. aeruginosa; details: for IC50: 5 nM VIM-2, 10 μM nitrocefin
E. coli = assay: Cell viability assay, bacterial growth; format: cell-based; details: for growth inhibition activity on its own: wild-type E. coli, without amoxicillin; for relative percentage growth, E. coli, Amox (−): compound alone; for relative percentage growth, E. coli, Amox (−) / relative percentage growth, E. coli, Amox (+): relative to untreated cells; for relative percentage growth, E. coli, Amox (+): with 50 μM amoxicillin
VIM2 expressing E. coli = format: cell-based; details: for growth inhibition activity on its own: VIM2-expressing E. coli, without amoxicillin; for relative percentage growth, VIM2 expressing E. coli, Amox (−): compound alone; for relative percentage growth, VIM2 expressing E. coli, Amox (−) / relative percentage growth, VIM2 expressing E. coli, Amox (+): relative to untreated cells; for relative percentage growth, VIM2 expressing E. coli, Amox (+): with 50 μM amoxicillin
VIM2 [2] = molecular target: T1, VIM2; format: biochemical, P. aeruginosa; details: 50 μM compound, 5 nM VIM-2, 10 μM nitrocefin, 30 mins
VIM-2 expressing E. coli = assay: Half maximal effective concentration; format: cell-based; details: in the presence of 50 μM amoxicillin
[3] = Plasma stability study, human plasma; format: in vitro ADME; details: 10 μM, 37 °C, pooled plasma
[4] = Plasma stability study, mouse plasma; format: in vitro ADME; details: 10 μM, 37 °C, pooled plasma
[5] = test system: human embryonic kidney HEK 293 cell lines; details: cited from earlier work
all eleven HDACs = details: earlier studies ref [10]; cited from earlier work
[6] = test system: O=C(Cc1cccs1)N[C@@H]1C(=O)N2C(C(=O)O)=C(/C=C/c3ccc([N+](=O)[O-])cc3[N+](=O)[O-])CS[C@H]12; assay: purified protein, by the assay type; details: other: 50 mM potassium phosphate buffer, pH 7.0, room temperature
VIM2 [7] = molecular target: T1, VIM2; set-up: species or system P. aeruginosa; details: 6 and 12 μM inhibitor, 6 μM VIM-2, ICP-AES
[8] = competitive-inhibition fit, nitrocefin substrate

On1ccccc1=S [Compound 2, 1-Hydroxypyridine-2-thione]
Ki (VIM2 [1]): 217 nM
growth inhibition activity on its own (E. coli): over 89%
growth inhibition activity on its own (VIM2 expressing E. coli): over 89%

O=C(CCCCCCC(=O)Nc1ccccc1)NO [SAHA]
relative percentage growth, E. coli, Amox (−) (E. coli): 83%
relative percentage growth, E. coli, Amox (+) (E. coli): 3.6%
relative percentage growth, VIM2 expressing E. coli, Amox (−) (VIM2 expressing E. coli): 79%
relative percentage growth, VIM2 expressing E. coli, Amox (+) (VIM2 expressing E. coli): 60%

O=C(O)[C@H]1/C(=C/CO)O[C@@H]2CC(=O)N21 [Clavulanate]
% Inhibition at 50 μM (VIM2 [2]): 15%
relative percentage growth, VIM2 expressing E. coli, Amox (+) (VIM2 expressing E. coli; listed as clavulanic acid): ineffective

O=C(O)c1cccc(=S)n1O [Compound 3, 1-hydroxypyridine-2(1H)-thiones-6-carboxylic acid]
% Inhibition at 50 μM (VIM2 [2]): 98%
Ki (VIM2 [1]): 0.013 nM
IC50 (VIM2 [1]): 270 nM
LE (ligand efficiency) (VIM2 [1]; LE = -1.38 log (Ki) / N, N = number of heavy atoms): 0.99
Ki (VIM2 [1]; [8]): 13 nM
relative percentage growth, E. coli, Amox (−) (E. coli): 77%
growth inhibition activity on its own (E. coli): moderate antibacterial activity
relative percentage growth, E. coli, Amox (+) (E. coli): 3.6%
growth inhibition activity on its own (VIM2 expressing E. coli): moderate antibacterial activity
relative percentage growth, VIM2 expressing E. coli, Amox (−) (VIM2 expressing E. coli): 61%
relative percentage growth, VIM2 expressing E. coli, Amox (+) (VIM2 expressing E. coli): 3.2%
EC50 (VIM-2 expressing E. coli): 110 nM
Human Plasma t1/2 [3]: 11.7 min
Mouse Plasma t1/2 [4]: 12.7 min
CC50 [5]: 97400 nM
range of selectivity among HDACs (all eleven HDACs): ~5000 fold

[Na+].[O-]n1ccccc1=S [Compound 2b]
% Inhibition at 50 μM (VIM2 [2]): 93%
IC50 (VIM2 [1]): 908 nM
Ki (VIM2 [1]; [8]): 217 nM

CC1(C)S[C@@H]2[C@H](NC(=O)[C@H](N)c3ccc(O)cc3)C(=O)N2[C@H]1C(=O)O [Amox, amoxicillin]
inhibition at 50 µM (E. coli; Escherichia coli, read-out: growth inhibition by amoxicillin alone): > 96%
relative percentage growth, E. coli, Amox (+) (E. coli): 3.6%
relative percentage growth, VIM2 expressing E. coli, Amox (+) (VIM2 expressing E. coli): 77%
relative percentage growth, VIM2 expressing E. coli, Amox (+) (VIM2 expressing E. coli; listed as amoxicillin): ineffective

VIM-2 (Escherichia coli)
kcat [6]: 212 s⁻¹

C[C@]1(Cn2ccnn2)[C@H](C(=O)O)N2C(=O)C[C@H]2S1(=O)=O [Tazobactam]
% Inhibition at 50 μM (VIM2 [2]): 25%

O=C(O)CN(CCN(CC(=O)O)CC(=O)O)CC(=O)O [EDTA]
metal content of VIM-2 with increasing inhibitor concentration (VIM2 [7]): inverse relationship

C[C@H](CS)C(=O)N1CCC[C@H]1C(=O)O [L-Captopril]
% Inhibition at 50 μM (VIM2 [2]): 98%
growth inhibition activity on its own (E. coli): moderate antibacterial activity
growth inhibition activity on its own (VIM2 expressing E. coli): moderate antibacterial activity
metal content of VIM-2 with increasing inhibitor concentration (VIM2 [7]): relatively unaffected
